The results in this text go back to patent US20220380341A1, “INHIBITORS OF HIV-1 NEF FOR THE TREATMENT OF HIV DISEASE” (priority 2018, published 2022).

Like-named read-outs stand apart in the source and are kept apart here.

The target of one data set is T1, HIV-1 Nef SF2 (Human immunodeficiency virus type 1 group M subtype B, UniProt P03407).
T1 construct: made in house
Briefly: biochemical. To be noted: two-step induced-fit model, Reichert SPR, read-out: Reichert SPR Nef SF2 (M) two-step fitting. Type of data set: binding.

A further data set relates to TZM-bl cell line. The data set is classed as cell-based. To be noted: human, 1 μM. The method in brief:
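Nef-dependent infectivity in TZM-bl cells: HIV-1NL4-3 infection with 1 μM compound, luciferase read at 48 h, normalized against DMSO wild-type and Nef-defective controls. Compound cytotoxicity in uninfected cells measured by Cell Titer Blue.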

Data set [1] has as its target Nef from SIV (strain mac239) (Simian immunodeficiency virus, UniProt Q5QGG3). Briefly: biochemical.
Protocol: Also shown are SPR data recorded on a Reichert 4-channel SPR instrument. […] Recombinant Nef is immobilized on the biosensor surface, and each compound is injected and association/dissociation kinetics are recorded. The resulting data for the 3 isoforms are each best-fit using both a two-site model and a two-step, induced-fit model. Dissociation constants (KD), calculated from the kinetic association and dissociation constants from all three isoforms, are shown in columns 6-7. Data were fit using three regimes and the resulting KD: from each model are shown in the Table: 1:1 Langmuir fit; 2-site fit, which yields low and high affinity components; and a 2-step induced fit model.
For another data set, the system named is uninfected PBMCs. Type of data set: cell-based. To be noted: human. As to the method:
FIG. 4. Inhibition of HIV-1 replication by compounds disclosed herein in PBMCs. Donor PBMCs were infected with HIV-1 in the presence of inhibitor concentrations ranging from 1 to 1,000 nM or the DMSO carrier solvent as a negative control (0.1% DMSO final). Replication was assessed by p24 Gag AlphaLISA (Perkin Elmer) […]. Each donor was also infected with Nef-defective HIV-1 to establish the baseline for Nef-dependent enhancement of replication in each culture. Cytotoxicity was assessed in uninfected PBMCs over the same incubation period using the CellTiter-Blue assay (Promega). Data were fit by non-linear regression analysis (GraphPad Prism v.7.04) to determine the IC50 and CC50 values shown.
Non-HLA-typed buffy coats (Source: Pittsburgh Central Blood Bank, #E3755) are received and processed within 24 hours of blood donation. PBMCs are isolated via rocking for RBC separation following 1:1 dilution with PBS, followed by Ficoll gradient centrifugation. The lymphocyte fraction is removed and washed several times for a final concentration of ˜150-300×10^6 cells per donor. Cells are activated for 3 days with 1-5 μg/mL PHA (Sigma) and 50 U/mL IL-2. Cells are plated at 750,000 cells/ml and viability is checked at day 3 using the Cell Titer Blue assay (Promega). If cells are >90% viable, then they are infected with HIV-1 NL4-3, wild-type or Δ-Nef mutant (input typically 30-500 pg/mL p24 capsid equivalents) in the presence or absence of Nef inhibitor analogs. IL-2 is included in the media at the time of infection. After 4 days, cells are lysed with 1% Triton X-100 for 1.5 h, checked for viability via Cell Titer Blue, and frozen/stored at −20° C. HIV-1 replication is assessed with a high-sensitivity HIV-1 p24 AlphaLISA assay (Perkin Elmer) in ½-volume 96-well plates, using one-half of the recommended assay volumes for all reagents (including samples). Assays are read on the BioTek Cytation5 instrument; readout is in AlphaUnits and replication in p24 pg/mL is determined using an HIV-1 p24 capsid protein standard included in the Alpha kit.

Another data set addresses HIV-1 NefNL4-3 (Human immunodeficiency virus type 1 group M subtype B, UniProt P03406, A33V/T15A/T51N/V11I). Briefly: Surface plasmon resonance binding to recombinant full-length Nef (NL4-3).
A further data set relates to HIV-1NL4-3. As to the kind of experiment: HIV-1 infectivity assay in TZM-bl reporter cell line (LTR-luciferase, 48 h). Type of data set: cell-based. To be noted: Human immunodeficiency virus 1, TZM-bl. The method in brief:
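Read-out is luciferase from an integrated HIV-1 LTR reporter in TZM-bl cells, 48 h after HIV-1NL4-3 infection in the presence of 1 μM compound. Scale set by DMSO-treated wild-type-infected cells (0%) and Nef-defective virus (100% Nef-dependent effect). Cell Titer Blue measures cytotoxicity without virus.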

A further data set deals with HIV-1 NL4-3. Briefly: HIV-1 replication in normal donor PBMCs (p24 Gag AlphaLISA). To be noted: Table 1, 4 days, words (Not active, Borderline) where no bound is given. Type of data set: cell-based. In outline:
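PHA/IL-2-activated donor PBMCs infected with HIV-1 NL4-3, wild-type or Δ-Nef, with inhibitor (1–1,000 nM, 0.1% DMSO) in IL-2 medium. Lysates taken after 4 days and p24 quantified by AlphaLISA against a p24 standard; IC50 by non-linear regression, CC50 by CellTiter-Blue in uninfected cells.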

Consider `CC(C)COC(=O)N1CCC(c2nn(-c3nc4ccccc4[nH]3)c(O)c2CCc2ccc(F)cc2)CC1` [Compound I-721, 2-methylpropyl 4-[1-(1H-1,3-benzodiazol-2-yl)-4-[2-(4-fluorophenyl)ethyl]-5-hydroxy-1H-pyrazol-3-yl]piperidine-1-carboxylate], for which the Kd at HIV-1 Nef SF2 was 5.88e-06 M; in data set [1] it was 82.6 nM; at HIV-1 NefNL4-3, 2.24e-07 M; at HIV-1 NefNL4-3 (KD, M, Table 4, SPR fit 2-step induced fit, KD = koff/kon × koff2/(koff2 + kon2)) it was 3.72e-05 M; at HIV-1 NefNL4-3 (Nef NL4-3 Binding, SPR 2-state fitting KD, Table 1, 2-step induced-fit model), 3.72e-05 M; at HIV-1 NefNL4-3 (Reichert SPR Nef NL43 (M) two-step fitting, KD, two-step induced-fit model, Reichert SPR, Table 3), 3.72e-05 M. On HIV-1 NefNL4-3 (read-out: Nef NL4-3 Binding, SPR 1:1 or 2-site fitting KD2, Table 1, 2-site fit, second component), the Kd amounted to 1.76e-06 M. Further, the “% Cell Viability” value with TZM-bl cell line is 84.3%. In addition, in the data set on TZM-bl cell line, the “Percent Viability @ 1 μM (TZM-bl cells)” value is listed as 84.3%. For the same molecule, in the data set on uninfected PBMCs, the “Toxicity in HIV Replication PBMC (Toxic @ concentration)” value is listed as “Toxic @ 10 nM”. The “T, minutes (residence time)” value on HIV-1 NefNL4-3 (Table 4, 2-step induced fit, T = 1/koff2) is reported as 4.69E + 02 minutes. In addition, the “RU30/RUNef (extent of binding)” value on HIV-1 NefNL4-3 (response units at 30 μM relative to Nef immobilized on the SPR chip) is 1.20E- 02. The inhibition at 1 µM in the data set on HIV-1NL4-3 (1.0 μM, TZM-bl reporter cell line, Table 4, read-out: % Infectivity Inhibition) is 100%; with HIV-1NL4-3 (1 μM, TZM-bl, normalized: DMSO wild-type HIV-1 = 0%, Nef-defective HIV-1 = 100%, read-out: HIV-1 Infectivity % Inhibition norm. to Δ-Nef @ 1 μM), 120%; in the data set on HIV-1NL4-3 (48 h, Table 1, TZM-bl cells, 1 μM, 48 h, 100% = Nef-defective HIV-1, read-out: HIV-1 Infectivity % Inhibition Norm. to Δ-Nef @ 1 μM), 120%. The “HIV Replication PBMC IC50 vs. HIV NL4-3” value with HIV-1 NL4-3 is recorded as “Borderline”.
